According to PubChem BioAssay AID2060498 (Molecular Pharmacology Branch, DTP, NCI, 2025):

System: 171881-019-R-J1-PDC tumor spheroids, viability
Assay: Anticancer human tumor 171881-019-R-J1-PDC patient-derived invasive breast carcinoma cell line growth inhibition [GQUAD]
Conditions: spheroids with HUVEC and MSC; for IC50: curve of first compound; for viability, T/C: stronger effect = lower value
Text: DNA G-quadruplex Stabilizer Agents in Combinations in Complex Spheroids
A high-throughput screen of multi-cell type tumor spheroids was designed to identify active combinations of DNA G-quadruplex stabilizer agents and targeted small molecules. Complex spheroids include a stromal component modeled by human endothelial cells (HUVEC) and fibroblasts modeled by human mesenchymal stem cells (MSCs). The concentration ranges selected for each drug and investigational agent were based upon clinically achievable concentrations if the clinical Cmax of the agent was known.
Compounds. The drugs and investigational agents: pidnarulex (CX-5461; NSC782164), APTO-253 (NSC789042), BRACO-19 (NSC847499), peposertib (NSC802822), ceralasertib (NSC780249), elimusertib (NSC800525), camonsertib (NSC841442), AZD-1390 (NSC803789), olaparib (NSC753686), talazoparib (NSC767125), ART-558 (NSC835418), sotorasib (NSC818433), MRTX-1133 (NSC836407), SN-38 (NSC673596), topotecan (NSC609699), etoposide (NSC141540), doxorubicin (NSC123127), gemcitabine (NSC613327), 5-fluorouracil (NSC19893), paclitaxel (NSC125973), vemurafenib (NSC761431), panobinostat (NSC761190), R-306465 (JNJ-16241199; NSC773264), adavosertib (NSC754352), TP-3654 (NSC805149), carboplatin (NSC241240), KSQ-4279 (NSC840948), and staurosporine (NSC755774) were obtained from the National Cancer Institute (NCI) Developmental Therapeutics Program Chemical Repository (34). The FDA-approved anticancer drug set is available from the NCI Developmental Therapeutics Program. […] The stock solutions were prepared in dimethyl sulfoxide (DMSO, Sigma-Aldrich, St. Louis, MO, cat. D2650) at 800-fold the tested concentration and stored at -70 degrees C prior to their use. All drugs and investigational agents were tested over a range starting from a high concentration at or near the clinical Cmax and decreasing in half-log increments. If the clinical Cmax for an agent had not been determined, the highest concentration tested was 10 microM.
2.3 Cell Culture. All cells were maintained in an incubator at 37 degrees C and 5% CO2 with 95% humidity. The PDC lines were cultured according to standard operating procedures established by the NCI PDMR. All PDCs were thawed and cultured in Matrigel-coated flasks prepared with a working solution of 1X Ham's F-12 nutrient mix, without supplementation (Invitrogen, cat. 11765054), 100 U/mL penicillin-streptomycin (Invitrogen, cat. 15140122), and 2.5% Matrigel (Corning Inc., cat. 354248) for the first three passages. The 857933-349-R-J2-PDC line was cultured in 6C/Colon 1B media, which includes advanced DMEM/F-12 (Thermo Fisher Scientific, cat. 12634028), 10 mM HEPES (Thermo Fisher Scientific, cat. 15630080), 1X GlutaMAX supplement (Thermo Fisher Scientific, cat. 35050061), 0.1 mg/mL primocin (InvivoGen, cat. ant-pm-2), 10% defined fetal bovine serum, heat inactivated (HyClone Laboratories Inc., cat. SH30070.03HI), 50% L-WRN conditioned media (ATCC, cat. CRL-3276), 1.25 mM N-Acetyl-L-cysteine (Sigma-Aldrich, cat. A9165), 10 mM nicotinamide (Sigma-Aldrich, cat. N0636), 1X B-27 supplement (Thermo Fisher Scientific, cat. 17504044), 1X N-2 supplement (Thermo Fisher Scientific, cat. 17502048), 10 microM Y-27632 dihydrochloride (Tocris Bioscience, cat. 1254), and 50 ng/mL human EGF recombinant protein (Thermo Fisher Scientific, cat. PHG0311). The 485176-168-R4-J1-PDC line was cultured in Panc media, which includes all 6C/Colon 1B media components plus 100 ng/mL human FGF-10 (Thermo Fisher Scientific, cat. 100-26), 500 nM SB-431542 (Selleckchem, cat. S1067), and gastrin (Tocris, cat. 3006).
[…]

[1] = second compound 0.0316 µM, first compound 0.0316 µM
[2] = second compound 0.0316 µM, first compound 0.1 µM
[3] = second compound 0.0316 µM, first compound 0.316 µM
[4] = second compound 0.0316 µM, first compound 1 µM
[5] = second compound 0.0316 µM, first compound 3.16 µM
[6] = second compound 0.0316 µM, first compound 10 µM
[7] = second compound 0.1 µM, first compound 0.0316 µM
[8] = second compound 0.1 µM, first compound 0.1 µM
[9] = second compound 0.1 µM, first compound 0.316 µM
[10] = second compound 0.1 µM, first compound 1 µM
[11] = second compound 0.1 µM, first compound 3.16 µM
[12] = second compound 0.1 µM, first compound 10 µM
[13] = second compound 0.316 µM, first compound 0.0316 µM
[14] = second compound 0.316 µM, first compound 0.1 µM
[15] = second compound 0.316 µM, first compound 0.316 µM
[16] = second compound 0.316 µM, first compound 1 µM
[17] = second compound 0.316 µM, first compound 3.16 µM
[18] = second compound 0.316 µM, first compound 10 µM
[19] = second compound 1 µM, first compound 0.0316 µM
[20] = second compound 1 µM, first compound 0.1 µM
[21] = second compound 1 µM, first compound 0.316 µM
[22] = second compound 1 µM, first compound 1 µM
[23] = second compound 1 µM, first compound 3.16 µM
[24] = second compound 1 µM, first compound 10 µM
[25] = second compound 3.16 µM, first compound 0.0316 µM
[26] = second compound 3.16 µM, first compound 0.1 µM
[27] = second compound 3.16 µM, first compound 0.316 µM
[28] = second compound 3.16 µM, first compound 1 µM
[29] = second compound 3.16 µM, first compound 3.16 µM
[30] = second compound 3.16 µM, first compound 10 µM
[31] = second compound 10 µM, first compound 0.0316 µM
[32] = second compound 10 µM, first compound 0.1 µM
[33] = second compound 10 µM, first compound 0.316 µM
[34] = second compound 10 µM, first compound 1 µM
[35] = second compound 10 µM, first compound 3.16 µM
[36] = second compound 10 µM, first compound 10 µM
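Further: spheroids exposed to compounds for 7 days.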
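Wherever viability, T/C is given: 100% = DMSO vehicle control viability.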

## COc1ccc([C@@H](O)c2cc(-c3ncnc4cc(N5CCOCC5)ccc34)c(F)cc2Cl)nn1 + CN(C)c1ccc(Nc2c3ccc(NC(=O)CCN4CCCC4)cc3nc3cc(NC(=O)CCN4CCCC4)ccc23)cc1
Second compound 0.0316 µM
  IC50: 544 nM
Second compound 0.1 µM
  IC50: 570 nM
Second compound 0.316 µM
  IC50: 335 nM
Second compound 1 µM
  IC50: < 31.6 nM
Second compound 3.16 µM
  IC50: < 31.6 nM
Second compound 10 µM
  IC50: < 31.6 nM
[1]
  viability, T/C: 97.2%
[2]
  viability, T/C: 85.8%
[3]
  viability, T/C: 62.5%
[4]
  viability, T/C: 37.6%
[5]
  viability, T/C: 7.36%
[6]
  viability, T/C: 1.57%
[7]
  viability, T/C: 94.5%
[8]
  viability, T/C: 87%
[9]
  viability, T/C: 64.2%
[10]
  viability, T/C: 37.5%
[11]
  viability, T/C: 7.17%
[12]
  viability, T/C: 1.52%
[13]
  viability, T/C: 79.3%
[14]
  viability, T/C: 72.5%
[15]
  viability, T/C: 52.2%
[16]
  viability, T/C: 18.2%
[17]
  viability, T/C: 4.99%
[18]
  viability, T/C: 0.9%
[19]
  viability, T/C: 27.1%
[20]
  viability, T/C: 17.4%
[21]
  viability, T/C: 18.6%
[22]
  viability, T/C: 4.62%
[23]
  viability, T/C: 1.37%
[24]
  viability, T/C: 0.46%
[25]
  viability, T/C: 1.64%
[26]
  viability, T/C: 2.1%
[27]
  viability, T/C: 1.49%
[28]
  viability, T/C: 0.45%
[29]
  viability, T/C: 0.38%
[30]
  viability, T/C: 0.23%
[31]
  viability, T/C: 0.4%
[32]
  viability, T/C: 0.57%
[33]
  viability, T/C: 0.32%
[34]
  viability, T/C: 0.19%
[35]
  viability, T/C: 0.14%
[36]
  viability, T/C: 0.38%

## O=C(c1cc(Cc2n[nH]c(=O)c3ccccc23)ccc1F)N1CCN(C(=O)C2CC2)CC1 + CN(C)c1ccc(Nc2c3ccc(NC(=O)CCN4CCCC4)cc3nc3cc(NC(=O)CCN4CCCC4)ccc23)cc1
Second compound 0.0316 µM
  IC50: > 10000 nM
Second compound 0.1 µM
  IC50: > 10000 nM
Second compound 0.316 µM
  IC50: > 10000 nM
Second compound 1 µM
  IC50: < 31.6 nM
Second compound 3.16 µM
  IC50: < 31.6 nM
Second compound 10 µM
  IC50: < 31.6 nM
[1]
  viability, T/C: 98.5%
[2]
  viability, T/C: 98.5%
[3]
  viability, T/C: 107%
[4]
  viability, T/C: 96.3%
[5]
  viability, T/C: 90.7%
[6]
  viability, T/C: 94.2%
[7]
  viability, T/C: 107%
[8]
  viability, T/C: 95.4%
[9]
  viability, T/C: 91.1%
[10]
  viability, T/C: 109%
[11]
  viability, T/C: 91.7%
[12]
  viability, T/C: 86.3%
[13]
  viability, T/C: 86.5%
[14]
  viability, T/C: 94.1%
[15]
  viability, T/C: 80.3%
[16]
  viability, T/C: 78.5%
[17]
  viability, T/C: 82%
[18]
  viability, T/C: 60.8%
[19]
  viability, T/C: 31.7%
[20]
  viability, T/C: 19.5%
[21]
  viability, T/C: 25.3%
[22]
  viability, T/C: 18.4%
[23]
  viability, T/C: 20.2%
[24]
  viability, T/C: 17.3%
[25]
  viability, T/C: 1.55%
[26]
  viability, T/C: 1.44%
[27]
  viability, T/C: 1.96%
[28]
  viability, T/C: 1.41%
[29]
  viability, T/C: 1.97%
[30]
  viability, T/C: 1.2%
[31]
  viability, T/C: 0.28%
[32]
  viability, T/C: 0.36%
[33]
  viability, T/C: 0.35%
[34]
  viability, T/C: 0.57%
[35]
  viability, T/C: 0.69%
[36]
  viability, T/C: 0.32%
